# Laboratory results published in patent US12582657B2, “Combination therapy including a KRAS G12C inhibitor and one or more additional pharmaceutically active agents for the treatment of cancers” (Amgen Inc., priority 2018, dated 2026).
# How the values were obtained:
# [1] = system: ERK1/2 phosphorylation in UM-UC-3 cells; test: Basal ERK1/2 phosphorylation assay (MSD); assay type: cell-based; details: Homo sapiens, UMUC3; UM-UC-3, bladder, KRAS p.G12C homozygous; 2-hour treatment
# Description: For cellular assays, 2.5E+04 cells were seeded per well in 96-well plates and incubated at 37° C., 5% CO2, o/n. The following day, 3-fold serially-diluted compound or DMSO was added to the cells, and the plates were incubated at 37° C., 5% CO2 for 2 hours. […] Signal intensity corresponded with phospho-ERK1/2 levels and was normalized DMSO control.
# [2] = Plasma and tumor concentrations of AMG 510 (LC-MS/MS); assay type: in vivo, mouse; details: tumor-bearing mice; single oral dose 10 mg/kg
# Description: Tumor tissue homogenates were prepared by adding water to tissue (4:1 mL:g) using tungsten carbide beads in a TissueLyzer (Qiagen). To 20 μL of sample (plasma or tumor tissue homogenate), 100 μL acetonitrile containing IS (200 ng/mL tolbutamide) was added, the sample was vortexed for 10 min, centrifuged at 3500 g for 10 min, and 90 μL of supernatant was collected. To the collected supernatant 100 μL of water (containing 0.1% formic acid) was added, and 5 μL of the resulting solution was injected onto the LC-MS/MS system. Chromatographic separations were achieved using a Phenomenex Kinetex C18 50×2.1 mm, 2.7 μm, maintained at 50° C., using 0.1% formic acid in H2O (mobile phase A) and 0.1% formic acid in acetonitrile (mobile phase B). […] Peak areas were integrated using Analyst® (Sciex).
# [3] = system: ERK1/2 phosphorylation in MIA PaCa-2 T2 tumors; test: Tumor pharmacodynamic assay (p-ERK, MSD immunoassay); assay type: in vivo, mouse
# [4] = system: ERK1/2 phosphorylation in NCI-H358 tumors; test: as above; details: Mus musculus, NCI-H358, po, 2 h, read-out: inhibition of p-ERK, reduction compared to control
smiles,measurement,setting,value
"C=CC(=O)N1CCN(c2nc(=O)n(-c3c(C)ccnc3C(C)C)c3nc(-c4c(O)cccc4F)c(F)cc23)[C@@H](C)C1 (atropisomer, axis not shown) [AMG 510, 6-fluoro-7-(2-fluoro-6-hydroxyphenyl)-1-(4-methyl-2-(2-propanyl)-3-pyridinyl)-4-((2S)-2-methyl-4-(2-propenoyl)-1-piperazinyl)pyrido[2,3-d]pyrimidin-2(1H)-one]",IC50,[1],29 ± 16 nM
same,time of peak plasma and tumor exposure,[2],0.5 h
same,inhibition at 100 mg/kg,"[3]; Mus musculus, MIA PaCa-2 T2, 100 mg/kg oral single dose, 2 hours post-treatment, read-out: inhibition of p-ERK, reduction compared to control",69%
same,time of maximal inhibition of p-ERK post-treatment,[3]; single dose 10 mg/kg,2 to 4 h
same,inhibition at 100 mg/kg,[4],83%
